SMILES strings stand for the structures.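 Cultured in 96-well plates, cells were exposed to test compound for 48 hours across five concentrations. GI50: concentration for 50% inhibition of growth.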 Active and inactive are the calls of the source. Cut-off read from the data, not from the text of the source: active = GI50 up to about 1.1 µM and inactive = higher.

What all share (assay): growth of human tumour cells (NCI), 48 h
In test [1] the test system is RXF 393.
Test [2] deals with K562.
The subject of test [3] is SK-MEL-5.
Test [4] deals with SF-539.
The test system of test [5] is M14.
The subject of test [6] is SK-MEL-28.
In test [7] the test system is SF-268.
Test [8] concerns HL-60.
Test [9] relates to NCI-H460.
Test [10] concerns SK-MEL-2.
For test [11], the system named is SNB-75.
For test [12], the system named is A549.
For test [13], the system named is CAKI-1.
For test [14], the system named is HOP-18.
Test [15] deals with LOX IMVI.
Test [16] concerns BT-549.
Test [17] has as its system MDA-MB-435.
Test [18] has as its system Hs-578T.
Test [19] deals with PC-3.
In test [20] the test system is DU-145.

As to `COC(=O)c1c(OC(=O)c2ccccc2)noc1CC(=O)OC1C=CCCC1` (configuration not stated), the GI50 in test [1] was 93.1 µM (inactive); in [2], 72.6 µM (inactive); in [3], 27.5 µM (inactive); in test [4] it was > 100 µM (inactive); in test [5], > 100 µM (inactive); in test [6], > 100 µM (inactive). Also, the GI50 in [7] was > 100 µM (inactive); in test [8] it was 35.1 µM (inactive); in test [9] it was > 100 µM (inactive); in [10], > 100 µM (inactive); in [11], > 100 µM (inactive); in test [12], > 100 µM (inactive). The GI50 in [13] and in test [14] was > 100 µM (inactive) each time.
`CC1=C(c2cc(C(=O)Nc3cc(C)ccc3C)nc(N)n2)Sc2ccccc2N1`: the GI50 in test [15], in [1], in [2], in test [3], in test [4] and in test [5] was > 100 µM (inactive) in each case. Besides, the GI50 in [6], in [7], in [8], in [9], in test [10] and in test [11] was > 100 µM (inactive) each time. In addition, the GI50 in test [12], in test [13] and in [14] was > 100 µM (inactive) throughout.
`CCOc1ccccc1/N=C(/NC(=O)CC)SC`: the GI50 in test [15], in test [1], in test [2], in test [3], in test [4] and in [5] was > 10 µM (inactive) in each case. Besides, the GI50 in [6] was > 10 µM (inactive); in test [7] it was > 10 µM (inactive); in test [8], > 10 µM (inactive); in test [9], > 10 µM (inactive); in test [10] it was 38.7 µM (inactive); in test [11], 67.6 µM (inactive). For the same molecule, the GI50 in test [12], in [13] and in [14] was > 10 µM (inactive) in each case.
Turning to `O=c1/c(=C/c2cccc3ccccc23)sc2nc3ccccc3n12`, the GI50 in test [15], in test [1], in [2], in test [3], in test [4] and in test [5] was > 100 µM (inactive) in each case. Besides, the GI50 in test [6] was > 100 µM (inactive); in [7], > 100 µM (inactive); in [8], > 100 µM (inactive); in test [9], > 100 µM (inactive); in [10] it was > 100 µM (inactive); in test [11] it was 71.9 µM (inactive). Further, the GI50 in test [12], in test [13] and in test [14] was > 100 µM (inactive) each time.
Take `COC(=O)Nc1nc2cc(Br)ccc2[nH]1`: the GI50 is > 100 µM (inactive) in test [15]; 25.8 µM (inactive) in test [1]; 17.6 µM (inactive) in [2]; 8.75 µM (inactive) in test [3]; 22.6 µM (inactive) in test [4]; 43.9 µM (inactive) in [5]. The GI50 was > 100 µM (inactive) in [6]; > 100 µM (inactive) in test [7]; 13.3 µM (inactive) in [8]; 24.9 µM (inactive) in test [9]; 16.1 µM (inactive) in [10]; 56 µM (inactive) in test [11]. Further, the GI50 in test [12] is 50.8 µM (inactive); in [14], 64.1 µM (inactive).
Take `Cc1ccc([N+](=O)[O-])cc1NC(=O)/C(=N/NC(=S)NN)C1SC(=S)NC1=O` (configuration not stated): the GI50 in test [15], in test [1], in test [2], in test [3], in [4] and in [5] was > 100 µM (inactive) each time. Further, the GI50 in [6] is > 100 µM (inactive); in [7], > 100 µM (inactive); in test [8] it was 78.3 µM (inactive); in test [9], > 100 µM (inactive); in test [10] it was > 100 µM (inactive); in test [11], > 100 µM (inactive). Moreover, the GI50 in test [12], in test [13] and in test [14] was > 100 µM (inactive) throughout.
Regarding `CCn1c2c(c3ccccc31)[C@@H](c1ccc(Cl)cc1)CC1C(=O)N(c3ccccc3)C(=O)C21` (some centres not stated), the GI50 in test [15] was > 100 µM (inactive); in test [1] it was 38 µM (inactive); in test [2] it was 77.3 µM (inactive); in test [3], > 100 µM (inactive); in [4], 31.8 µM (inactive); in test [5], > 100 µM (inactive). Besides, the GI50 in test [6] is > 100 µM (inactive); in test [7] it was 77.8 µM (inactive); in test [8], 16.4 µM (inactive); in test [9], 67.1 µM (inactive); in [10], 91.8 µM (inactive); in test [11], 71.9 µM (inactive). Further, the GI50 in [12], in [13] and in [14] was > 100 µM (inactive) throughout.
Take `C=CCOC(=O)C1CCC(=O)N1C(=O)C(Cl)Cl` (configuration not stated): the GI50 in [15], in test [2], in test [3], in test [5], in test [6] and in [7] was > 100 µM (inactive) each time. Also, the GI50 is > 100 µM (inactive) in test [8]; > 100 µM (inactive) in [9]; > 100 µM (inactive) in [10]; 61.8 µM (inactive) in [11]; > 100 µM (inactive) in [12]; > 100 µM (inactive) in test [13]. Also, in test [14], the GI50 is > 100 µM (inactive).
As to `CC1=Cc2cccc(C)c2C(=O)C1=O` [O-HIBISCANONE], the GI50 in test [15] was 8.77 µM (inactive); in [1] it was 4.66 µM (inactive); in test [2], 0.617 µM (active); in [3], 2.28 µM (inactive); in [4] it was 6.56 µM (inactive); in test [5], 4.67 µM (inactive). Moreover, the GI50 in test [6] was 16 µM (inactive); in [7], 11.3 µM (inactive); in test [8], 0.481 µM (active); in test [9], 20.5 µM (inactive); in [10], 17.3 µM (inactive); in test [11], 15.8 µM (inactive). The GI50 in test [12] is 6.81 µM (inactive); in test [13], 16.5 µM (inactive); in test [14], 1.42 µM (inactive).
Take `CC(C)c1ccc(/C(C(=O)O)=C(\O)C(=O)O)cc1`: the GI50 in test [15], in test [1], in test [2], in test [3], in test [4] and in [5] was > 100 µM (inactive) throughout. Further, the GI50 in test [6], in test [7], in test [16], in test [8], in test [17] and in test [9] was > 100 µM (inactive) each time. The GI50 in test [18], in test [10], in [11], in test [12], in test [13] and in [19] was > 100 µM (inactive) each time. The GI50 in test [20] was > 100 µM (inactive).
For the molecule `O=C(CCc1ccccc1)On1c(-c2ccccc2)nc2ccccc2c1=S`, the GI50 in test [15] is 0.456 µM (active); in [1] it was 18.6 µM (inactive); in test [2] it was 4.6 µM (inactive); in test [3] it was 4.47 µM (inactive); in [4] it was 3.92 µM (inactive); in [5] it was 5.57 µM (inactive). For the same molecule, the GI50 in test [6] was 16.1 µM (inactive); in test [7] it was 3.07 µM (inactive); in [16], 14.5 µM (inactive); in test [8], 3.05 µM (inactive); in test [17], 8.18 µM (inactive); in [9], 1.35 µM (inactive). Also, the GI50 in [18] was 13.1 µM (inactive); in [10], 8.81 µM (inactive); in test [11] it was 9.77 µM (inactive); in test [12], 3.65 µM (inactive); in [13], 5.68 µM (inactive); in test [19], 4.73 µM (inactive). Moreover, the GI50 in test [20] was 9.71 µM (inactive).
As for `CC[C@@H]1C[C@H]2CC3c4[nH]c5ccc(O)cc5c4CCN(C2)C31`, the GI50 in test [15] was > 100 µM (inactive); in test [1] it was 72.3 µM (inactive); in test [2], 99.5 µM (inactive); in [4] it was > 100 µM (inactive); in [5], > 100 µM (inactive); in test [6] it was > 100 µM (inactive). Further, the GI50 in test [7], in test [8], in test [9], in test [10], in test [11] and in test [12] was > 100 µM (inactive) in each case. For the same molecule, the GI50 in [13] and in test [14] was > 100 µM (inactive) each time.
Take `O=C(O)/C(=C\c1ccccc1)Cc1ccccc1`: the GI50 in [15] was > 100 µM (inactive); in [1] it was > 100 µM (inactive); in test [2], > 100 µM (inactive); in test [3], > 100 µM (inactive); in test [4], 83 µM (inactive); in test [5] it was > 100 µM (inactive). Besides, the GI50 in test [6], in [7], in [16], in [8], in [17] and in [9] was > 100 µM (inactive) in each case. Also, the GI50 in test [18], in [10], in test [11], in test [12], in [13] and in test [19] was > 100 µM (inactive) throughout. Also, the GI50 in test [20] was > 100 µM (inactive).

These data come from ChEMBL document CHEMBL1201862, “PubChem BioAssay data set” (2004).
